# From ChEMBL document CHEMBL5465560, “Selectivity Literature for EUbOPEN Chemogenomic Library” (2024)
# Tests used:
# [1] = target: T1, Dual specificity tyrosine-phosphorylation-regulated kinase 3 (Homo sapiens, UniProt O43781); test: Selectivity interaction (Enzymatic assay (Eurofins)) EUB0001049a DYRK3
# T1 sequence (O43781 whole entry): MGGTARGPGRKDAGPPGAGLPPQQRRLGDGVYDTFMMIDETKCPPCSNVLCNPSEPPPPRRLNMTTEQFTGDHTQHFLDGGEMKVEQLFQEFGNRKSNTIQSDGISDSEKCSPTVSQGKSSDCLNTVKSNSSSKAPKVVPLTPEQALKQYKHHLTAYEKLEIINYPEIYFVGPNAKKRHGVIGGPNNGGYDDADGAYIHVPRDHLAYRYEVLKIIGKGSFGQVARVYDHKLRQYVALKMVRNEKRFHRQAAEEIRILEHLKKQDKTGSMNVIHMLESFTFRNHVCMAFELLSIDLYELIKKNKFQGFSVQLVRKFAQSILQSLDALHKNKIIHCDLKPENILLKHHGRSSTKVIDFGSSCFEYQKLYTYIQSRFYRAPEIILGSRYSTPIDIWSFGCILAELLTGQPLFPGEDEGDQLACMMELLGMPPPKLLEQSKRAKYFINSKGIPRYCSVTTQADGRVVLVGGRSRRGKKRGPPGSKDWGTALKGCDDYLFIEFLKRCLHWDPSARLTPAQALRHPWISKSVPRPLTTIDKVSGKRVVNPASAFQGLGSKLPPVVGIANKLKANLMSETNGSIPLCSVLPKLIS
# [2] = target: Serine/threonine-protein kinase 38 (Homo sapiens) (UniProt Q15208); test: Selectivity interaction (ActivX KiNativ screen (kinase selectivity in THP-1 cell lysates)) EUB0000639a STK38; format: subcellular; conditions: lysate, at 1 µM
# Serine/threonine-protein kinase 38 (Homo sapiens), sequence (Q15208 2-465 limits assumed): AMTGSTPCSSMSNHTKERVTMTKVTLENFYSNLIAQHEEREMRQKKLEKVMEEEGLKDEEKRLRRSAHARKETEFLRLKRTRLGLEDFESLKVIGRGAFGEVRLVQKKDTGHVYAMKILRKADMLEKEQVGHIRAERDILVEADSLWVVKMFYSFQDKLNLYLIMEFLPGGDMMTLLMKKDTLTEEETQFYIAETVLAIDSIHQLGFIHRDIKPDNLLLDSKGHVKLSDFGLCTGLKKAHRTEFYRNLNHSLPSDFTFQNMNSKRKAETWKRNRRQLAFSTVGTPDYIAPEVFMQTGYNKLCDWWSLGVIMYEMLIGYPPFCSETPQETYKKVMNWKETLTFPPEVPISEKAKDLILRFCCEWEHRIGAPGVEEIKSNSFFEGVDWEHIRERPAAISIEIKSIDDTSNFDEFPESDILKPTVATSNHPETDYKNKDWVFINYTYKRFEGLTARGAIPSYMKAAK
# [3] = target: Tyrosine-protein kinase JAK1 (Homo sapiens, UniProt P23458); test: Selectivity interaction (ActivX KiNativ screen (kinase selectivity in THP-1 cell lysates)) EUB0000639a JAK1; format: subcellular; conditions: lysate, at 0.2 µM
# Tyrosine-protein kinase JAK1, sequence (P23458 whole entry): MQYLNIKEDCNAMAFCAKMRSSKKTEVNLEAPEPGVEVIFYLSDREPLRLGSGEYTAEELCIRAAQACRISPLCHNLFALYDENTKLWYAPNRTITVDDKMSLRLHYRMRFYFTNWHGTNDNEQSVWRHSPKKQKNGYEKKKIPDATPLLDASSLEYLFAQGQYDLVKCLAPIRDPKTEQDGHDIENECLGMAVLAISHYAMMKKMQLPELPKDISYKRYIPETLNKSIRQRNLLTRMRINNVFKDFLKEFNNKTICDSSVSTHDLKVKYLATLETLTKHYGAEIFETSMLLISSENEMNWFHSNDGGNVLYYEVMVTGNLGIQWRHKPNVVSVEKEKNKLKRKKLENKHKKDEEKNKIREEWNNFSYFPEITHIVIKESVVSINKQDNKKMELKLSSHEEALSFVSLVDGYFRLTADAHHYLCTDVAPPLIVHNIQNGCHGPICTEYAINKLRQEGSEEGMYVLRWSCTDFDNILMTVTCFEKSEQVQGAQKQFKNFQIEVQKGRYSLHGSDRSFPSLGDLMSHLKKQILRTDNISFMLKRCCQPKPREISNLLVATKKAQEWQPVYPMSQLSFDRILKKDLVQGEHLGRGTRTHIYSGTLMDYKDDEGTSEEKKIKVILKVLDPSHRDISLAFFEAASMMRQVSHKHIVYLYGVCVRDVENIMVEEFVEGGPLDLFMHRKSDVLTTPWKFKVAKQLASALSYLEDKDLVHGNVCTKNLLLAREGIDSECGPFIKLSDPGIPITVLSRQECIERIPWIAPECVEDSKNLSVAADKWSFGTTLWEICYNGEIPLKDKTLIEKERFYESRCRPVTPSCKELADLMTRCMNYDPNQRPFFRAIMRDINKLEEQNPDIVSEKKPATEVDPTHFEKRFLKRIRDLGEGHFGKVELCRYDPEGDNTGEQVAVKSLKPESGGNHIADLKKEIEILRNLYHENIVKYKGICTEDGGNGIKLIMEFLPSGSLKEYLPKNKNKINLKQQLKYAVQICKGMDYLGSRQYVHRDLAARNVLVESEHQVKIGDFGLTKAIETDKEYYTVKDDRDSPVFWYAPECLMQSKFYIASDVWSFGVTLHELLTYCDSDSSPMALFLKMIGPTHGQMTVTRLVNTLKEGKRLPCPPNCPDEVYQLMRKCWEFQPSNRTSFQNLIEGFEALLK
# [4] = target: Ribosomal protein S6 kinase alpha-2 (Homo sapiens) (UniProt Q15349); test: Selectivity interaction (KinomeScan (DiscoverX)) EUB0000695a RPS6KA2; conditions: at 100 nM
# Ribosomal protein S6 kinase alpha-2 (Homo sapiens), sequence (Q15349 whole entry): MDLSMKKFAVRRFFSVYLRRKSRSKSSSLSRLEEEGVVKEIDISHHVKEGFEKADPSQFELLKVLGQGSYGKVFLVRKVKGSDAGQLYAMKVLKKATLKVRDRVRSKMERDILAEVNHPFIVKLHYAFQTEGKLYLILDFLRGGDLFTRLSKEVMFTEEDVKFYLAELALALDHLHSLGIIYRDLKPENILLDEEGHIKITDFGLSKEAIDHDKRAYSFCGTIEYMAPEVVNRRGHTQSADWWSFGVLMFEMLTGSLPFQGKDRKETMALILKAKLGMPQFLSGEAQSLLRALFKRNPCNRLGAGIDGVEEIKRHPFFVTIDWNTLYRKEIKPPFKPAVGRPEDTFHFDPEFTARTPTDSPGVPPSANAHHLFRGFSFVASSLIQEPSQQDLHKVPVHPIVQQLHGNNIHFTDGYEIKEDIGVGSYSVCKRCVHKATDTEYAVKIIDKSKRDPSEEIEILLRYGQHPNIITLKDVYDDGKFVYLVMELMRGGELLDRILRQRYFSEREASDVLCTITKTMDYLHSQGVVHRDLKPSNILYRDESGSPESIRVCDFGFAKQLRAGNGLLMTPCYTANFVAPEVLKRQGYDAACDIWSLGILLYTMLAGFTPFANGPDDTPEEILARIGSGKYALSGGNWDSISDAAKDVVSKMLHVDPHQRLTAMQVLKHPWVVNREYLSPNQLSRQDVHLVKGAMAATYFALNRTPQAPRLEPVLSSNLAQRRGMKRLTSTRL
# [5] = target: T2, Serine/threonine-protein kinase 4 (Homo sapiens) (UniProt Q13043); test: Selectivity interaction (KinomeScan (DiscoverX)) EUB0000695a STK4; conditions: at 100 nM
# T2 sequence (whole entry): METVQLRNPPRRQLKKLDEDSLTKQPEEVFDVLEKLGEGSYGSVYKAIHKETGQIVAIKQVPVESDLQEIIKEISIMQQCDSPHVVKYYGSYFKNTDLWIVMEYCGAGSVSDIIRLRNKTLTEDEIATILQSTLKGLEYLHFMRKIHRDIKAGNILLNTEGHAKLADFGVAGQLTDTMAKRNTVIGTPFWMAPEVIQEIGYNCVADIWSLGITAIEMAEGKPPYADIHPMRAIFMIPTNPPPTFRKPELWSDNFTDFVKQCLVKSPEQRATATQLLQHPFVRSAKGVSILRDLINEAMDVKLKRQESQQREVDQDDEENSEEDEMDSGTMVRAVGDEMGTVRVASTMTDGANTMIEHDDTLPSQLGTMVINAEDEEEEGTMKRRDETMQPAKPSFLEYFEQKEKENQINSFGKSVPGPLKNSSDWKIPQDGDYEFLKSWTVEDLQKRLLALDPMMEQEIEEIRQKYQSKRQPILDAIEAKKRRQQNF
# [6] = target: T3, Mitogen-activated protein kinase kinase kinase 6 (Homo sapiens) (UniProt O95382); test: Selectivity interaction (KinomeScan (DiscoverX)) EUB0000595a MAP3K6; conditions: at 10 µM
# T3 sequence (whole entry): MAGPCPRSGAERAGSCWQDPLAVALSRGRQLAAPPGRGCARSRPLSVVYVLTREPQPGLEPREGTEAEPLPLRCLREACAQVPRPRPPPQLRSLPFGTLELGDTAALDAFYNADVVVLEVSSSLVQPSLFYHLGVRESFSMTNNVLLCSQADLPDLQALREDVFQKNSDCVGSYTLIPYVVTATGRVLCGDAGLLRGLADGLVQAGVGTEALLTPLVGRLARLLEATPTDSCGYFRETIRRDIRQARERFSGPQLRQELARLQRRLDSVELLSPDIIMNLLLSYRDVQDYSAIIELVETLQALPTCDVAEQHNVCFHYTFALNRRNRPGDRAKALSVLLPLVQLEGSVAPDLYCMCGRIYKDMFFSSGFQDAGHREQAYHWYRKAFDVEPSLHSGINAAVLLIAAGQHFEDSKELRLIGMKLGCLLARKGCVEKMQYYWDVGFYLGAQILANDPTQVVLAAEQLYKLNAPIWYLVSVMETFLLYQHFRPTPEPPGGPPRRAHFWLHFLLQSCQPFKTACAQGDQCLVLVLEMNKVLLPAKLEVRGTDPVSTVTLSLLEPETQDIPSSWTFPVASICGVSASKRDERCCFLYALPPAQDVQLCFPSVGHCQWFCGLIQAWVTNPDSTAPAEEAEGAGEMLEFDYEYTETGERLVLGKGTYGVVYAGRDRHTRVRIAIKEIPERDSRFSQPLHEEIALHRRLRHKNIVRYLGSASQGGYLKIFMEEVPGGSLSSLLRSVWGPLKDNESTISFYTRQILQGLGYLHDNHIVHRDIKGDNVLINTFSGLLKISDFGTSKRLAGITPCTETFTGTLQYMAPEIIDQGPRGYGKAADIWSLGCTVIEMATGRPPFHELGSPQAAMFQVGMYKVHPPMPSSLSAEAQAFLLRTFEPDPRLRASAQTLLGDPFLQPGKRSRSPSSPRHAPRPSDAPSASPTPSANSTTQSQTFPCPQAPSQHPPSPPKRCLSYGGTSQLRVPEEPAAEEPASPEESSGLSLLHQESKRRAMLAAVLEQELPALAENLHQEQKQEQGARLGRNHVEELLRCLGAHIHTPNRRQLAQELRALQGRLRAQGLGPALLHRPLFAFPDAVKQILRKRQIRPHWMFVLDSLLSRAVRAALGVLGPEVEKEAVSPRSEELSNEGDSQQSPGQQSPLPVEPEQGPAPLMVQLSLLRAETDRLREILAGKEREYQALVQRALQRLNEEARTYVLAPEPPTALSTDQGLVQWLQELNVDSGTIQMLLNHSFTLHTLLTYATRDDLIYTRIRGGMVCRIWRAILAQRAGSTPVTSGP
# [7] = test system: eIF-2-alpha kinase GCN2 (Homo sapiens), Q9P2K8 [S808G]; test: Selectivity interaction (KinomeScan (DiscoverX)) EUB0000655a EIF2AK4; conditions: at 10 µM
# [8] = target: Misshapen-like kinase 1 (Homo sapiens, UniProt Q8N4C8); test: Selectivity interaction (KinomeScan (DiscoverX)) EUB0000607a MINK1; conditions: at 10 µM
# Misshapen-like kinase 1, sequence (Q8N4C8 whole entry, looked up): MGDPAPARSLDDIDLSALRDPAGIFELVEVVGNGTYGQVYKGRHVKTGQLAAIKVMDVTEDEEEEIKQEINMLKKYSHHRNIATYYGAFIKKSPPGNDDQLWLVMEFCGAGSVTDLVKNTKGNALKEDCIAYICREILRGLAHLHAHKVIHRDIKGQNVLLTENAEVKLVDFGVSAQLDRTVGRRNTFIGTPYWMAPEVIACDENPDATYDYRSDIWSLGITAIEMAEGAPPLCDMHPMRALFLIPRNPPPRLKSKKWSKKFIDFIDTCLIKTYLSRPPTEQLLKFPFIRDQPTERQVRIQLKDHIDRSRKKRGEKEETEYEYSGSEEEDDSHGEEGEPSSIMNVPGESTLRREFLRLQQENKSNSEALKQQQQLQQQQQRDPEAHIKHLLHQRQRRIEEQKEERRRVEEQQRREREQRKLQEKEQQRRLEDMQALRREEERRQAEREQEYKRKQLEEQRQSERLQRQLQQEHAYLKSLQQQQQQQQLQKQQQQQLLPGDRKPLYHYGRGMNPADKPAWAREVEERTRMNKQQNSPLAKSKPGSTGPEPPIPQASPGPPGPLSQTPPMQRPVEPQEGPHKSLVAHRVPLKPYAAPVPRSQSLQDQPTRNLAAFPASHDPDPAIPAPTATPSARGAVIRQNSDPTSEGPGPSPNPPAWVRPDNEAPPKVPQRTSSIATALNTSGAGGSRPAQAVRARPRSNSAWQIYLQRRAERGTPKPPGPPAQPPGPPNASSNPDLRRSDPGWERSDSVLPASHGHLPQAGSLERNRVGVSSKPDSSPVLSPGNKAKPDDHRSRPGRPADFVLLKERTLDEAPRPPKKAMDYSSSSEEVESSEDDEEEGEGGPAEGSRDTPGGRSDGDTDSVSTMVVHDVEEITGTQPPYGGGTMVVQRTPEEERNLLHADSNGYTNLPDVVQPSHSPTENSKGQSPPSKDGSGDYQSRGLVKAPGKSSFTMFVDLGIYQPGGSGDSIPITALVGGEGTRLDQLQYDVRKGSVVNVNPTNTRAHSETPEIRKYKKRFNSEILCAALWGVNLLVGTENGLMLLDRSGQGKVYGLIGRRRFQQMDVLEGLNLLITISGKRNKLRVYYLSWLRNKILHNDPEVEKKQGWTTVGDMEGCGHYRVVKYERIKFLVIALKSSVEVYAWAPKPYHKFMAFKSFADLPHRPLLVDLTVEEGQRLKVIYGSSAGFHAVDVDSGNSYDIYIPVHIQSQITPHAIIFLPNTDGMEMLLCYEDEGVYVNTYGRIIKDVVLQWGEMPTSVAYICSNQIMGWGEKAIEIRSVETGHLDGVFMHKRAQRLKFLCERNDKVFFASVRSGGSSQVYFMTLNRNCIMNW
# [9] = target: Glycogen synthase kinase-3 beta (Homo sapiens, UniProt P49841); test: Selectivity interaction (Kinase panel (KiNativ target engagement assay in Jurkat cells)) EUB0001635a GSK3B; format: cell-based; conditions: Selectivity number of off-targets 0.0, Selectivity number of targets 233.0, Source Knowledge https://www.sciencedirect.com/science/article/pii/S2451945619300674?via%3Dihub, at 1 µM
# Glycogen synthase kinase-3 beta, sequence (P49841 whole entry, looked up): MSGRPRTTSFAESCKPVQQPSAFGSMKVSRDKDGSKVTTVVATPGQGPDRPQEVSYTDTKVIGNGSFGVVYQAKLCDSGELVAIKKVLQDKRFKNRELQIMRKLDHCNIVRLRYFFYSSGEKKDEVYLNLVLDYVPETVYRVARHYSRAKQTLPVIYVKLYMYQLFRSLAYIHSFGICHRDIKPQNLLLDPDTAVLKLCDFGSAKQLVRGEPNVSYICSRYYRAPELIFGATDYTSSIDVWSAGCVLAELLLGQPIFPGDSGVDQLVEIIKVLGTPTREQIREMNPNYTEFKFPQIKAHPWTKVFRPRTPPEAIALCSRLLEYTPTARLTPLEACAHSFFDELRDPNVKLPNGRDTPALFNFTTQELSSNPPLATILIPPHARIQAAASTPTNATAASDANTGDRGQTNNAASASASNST
smiles,measurement,setting,value
COc1cc(Nc2nc(C)cc(-c3cnn4nc(OC)ccc34)n2)cc(C(F)(F)F)c1,IC50,[1],> 10 µM
CC[C@@H]1[C@H](F)C(=O)N[C@@H]1COc1nccc2cc(C(N)=O)c(OC)cc12 [ZIMLOVISERTIB],% of inhibition,[2],65.8%
same,% of inhibition,[3],-1.1%
Cc1cc(F)c(C(=O)Nc2cccc(-c3nncn3C(C)C)n2)cc1-n1cnc(C2CC2)c1,% of control,[4],87%
same,% of control,[5],100%
COCC(=O)NC/C=C/c1ccc2ncnc(Nc3ccc(Oc4ccc(C)nc4)c(C)c3)c2c1 [CP-724714],% of control,[6],100%
CN(C)CCOc1ccc(-c2nc(-c3ccncc3)c(-c3ccc4c(c3)CC/C4=N\O)[nH]2)cc1,% of control,[7],97%
CNC(=O)Nc1ccc(-c2nc(N3CC4CCC(C3)O4)c3cnn(C4CCC5(CC4)OCCO5)c3n2)cc1,% of control,[8],100%
C=CC(=O)Nc1ccc(C(=O)Nc2[nH]nc3c2CN(C(=O)N[C@H](CN(C)C)c2ccccc2)C3(C)C)cc1,% of engagement,[9],-4.3%
